Reference: patent publication US10745377B2, “Piperidine or piperazine linked imidazole and triazole derivatives and methods of use” (MERCK SHARP & DOHME CORP., priority 2013, dated 2020)

Experiments:
Assay type in all cases: biochemical
CYP2D6 = biological target: T1, CYP2D6 (Homo sapiens, UniProt P10635); test: Cocktail assay for CYPs in human liver microsomes: CYP2D6 (dextromethorphan O-demethylation); conditions: human liver microsomes 0.1 mg/mL, 5 μM dextromethorphan, 10 min at 37° C., 6 concentrations up to 10 μM; read-out: IC50 (nM) CYP2D6
T1 construct: 0.1 mg/mL protein human liver microsomes (BD Gentest); tissue BD Gentest; host or cells: human liver microsomes
T1 sequence (P10635 whole entry): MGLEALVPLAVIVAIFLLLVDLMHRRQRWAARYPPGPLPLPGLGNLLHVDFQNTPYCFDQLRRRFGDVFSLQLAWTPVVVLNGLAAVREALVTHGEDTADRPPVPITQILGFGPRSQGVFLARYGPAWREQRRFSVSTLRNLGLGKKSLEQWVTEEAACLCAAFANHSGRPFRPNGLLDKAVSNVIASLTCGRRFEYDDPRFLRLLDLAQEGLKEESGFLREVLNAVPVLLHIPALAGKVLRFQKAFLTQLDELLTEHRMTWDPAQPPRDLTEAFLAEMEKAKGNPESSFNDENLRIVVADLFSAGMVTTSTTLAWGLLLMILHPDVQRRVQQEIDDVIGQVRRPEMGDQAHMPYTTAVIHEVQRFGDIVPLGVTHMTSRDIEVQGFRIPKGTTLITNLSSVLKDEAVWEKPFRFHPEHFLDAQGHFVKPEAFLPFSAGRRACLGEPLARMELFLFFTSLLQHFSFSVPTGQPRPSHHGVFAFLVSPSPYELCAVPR

CYP2C19 = biological target: T2, CYP2C19 (Homo sapiens, UniProt P33261); test: Cocktail assay for CYPs in human liver microsomes: CYP2C19 (mephenytoin 4′-hydroxylation); conditions: human liver microsomes 0.1 mg/mL, 30 μM mephenytoin, 10 min at 37° C., 6 concentrations up to 10 μM; read-out: IC50 (nM) CYP2C19
T2 construct: 0.1 mg/mL protein human liver microsomes (BD Gentest); tissue BD Gentest; host or cells: human liver microsomes
T2 sequence (P33261 whole entry): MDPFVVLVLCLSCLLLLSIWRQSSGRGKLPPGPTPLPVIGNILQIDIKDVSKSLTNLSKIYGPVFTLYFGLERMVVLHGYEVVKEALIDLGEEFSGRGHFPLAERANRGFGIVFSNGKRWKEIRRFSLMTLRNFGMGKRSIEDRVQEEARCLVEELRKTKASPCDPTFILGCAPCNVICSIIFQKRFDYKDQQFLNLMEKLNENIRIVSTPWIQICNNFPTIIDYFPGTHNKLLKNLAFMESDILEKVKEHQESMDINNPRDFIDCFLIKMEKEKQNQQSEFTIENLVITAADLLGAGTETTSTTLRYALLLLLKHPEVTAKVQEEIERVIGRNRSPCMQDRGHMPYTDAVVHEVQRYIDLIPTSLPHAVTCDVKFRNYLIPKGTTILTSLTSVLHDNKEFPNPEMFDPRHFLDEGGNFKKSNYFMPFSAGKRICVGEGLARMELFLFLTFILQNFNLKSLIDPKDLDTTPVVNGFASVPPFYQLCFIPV

CYP3A4 = biological target: T3, CYP3A4 (Homo sapiens, UniProt P08684); test: Cocktail assay for CYPs in human liver microsomes: CYP3A4 (midazolam 1′-hydroxylation); conditions: human liver microsomes 0.1 mg/mL, 2 μM midazolam, 10 min at 37° C., 6 concentrations up to 10 μM; read-out: IC50 (nM) CYP3A4
T3 construct: 0.1 mg/mL protein human liver microsomes (BD Gentest); tissue BD Gentest; host or cells: human liver microsomes
T3 sequence (P08684 whole entry): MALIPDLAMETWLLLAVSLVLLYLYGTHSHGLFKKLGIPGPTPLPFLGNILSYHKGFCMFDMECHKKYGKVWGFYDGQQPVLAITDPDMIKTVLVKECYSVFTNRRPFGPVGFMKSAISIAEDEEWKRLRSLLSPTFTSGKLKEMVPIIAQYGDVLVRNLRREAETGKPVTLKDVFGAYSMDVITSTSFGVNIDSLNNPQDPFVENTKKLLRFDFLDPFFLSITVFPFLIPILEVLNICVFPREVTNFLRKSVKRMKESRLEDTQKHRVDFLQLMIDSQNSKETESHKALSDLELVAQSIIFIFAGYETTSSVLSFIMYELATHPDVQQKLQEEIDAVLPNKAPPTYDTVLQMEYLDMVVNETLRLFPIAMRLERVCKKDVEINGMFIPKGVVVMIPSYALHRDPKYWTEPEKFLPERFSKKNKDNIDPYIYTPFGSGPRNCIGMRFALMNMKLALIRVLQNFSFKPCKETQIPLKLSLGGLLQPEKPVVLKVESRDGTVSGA

CYP2C9 = biological target: T4, CYP2C9 (Homo sapiens, UniProt P11712); test: Cocktail assay for CYPs in human liver microsomes: CYP2C9 (diclofenac 4′-hydroxylation); conditions: human liver microsomes 0.1 mg/mL, 5 μM diclofenac, 10 min at 37° C., 6 concentrations up to 10 μM; read-out: IC50 (nM) CYP2C9
T4 construct: 0.1 mg/mL protein human liver microsomes (BD Gentest); tissue BD Gentest; host or cells: human liver microsomes
T4 sequence (P11712 whole entry): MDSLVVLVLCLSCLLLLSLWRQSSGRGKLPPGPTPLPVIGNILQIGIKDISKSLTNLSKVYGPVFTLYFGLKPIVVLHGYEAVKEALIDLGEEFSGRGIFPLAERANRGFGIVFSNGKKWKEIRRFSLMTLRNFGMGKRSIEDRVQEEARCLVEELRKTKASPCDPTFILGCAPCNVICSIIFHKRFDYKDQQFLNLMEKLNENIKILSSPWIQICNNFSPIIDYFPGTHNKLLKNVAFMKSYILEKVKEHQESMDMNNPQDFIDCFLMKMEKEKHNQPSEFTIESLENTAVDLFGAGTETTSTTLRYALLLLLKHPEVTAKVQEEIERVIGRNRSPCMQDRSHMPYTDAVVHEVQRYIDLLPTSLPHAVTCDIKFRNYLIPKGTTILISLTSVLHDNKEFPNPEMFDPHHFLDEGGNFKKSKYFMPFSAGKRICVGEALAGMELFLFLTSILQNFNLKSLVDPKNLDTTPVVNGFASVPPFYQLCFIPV

CYP1A2 = biological target: T5, CYP1A2 (Homo sapiens, UniProt P05177); test: Cocktail assay for CYPs in human liver microsomes: CYP1A2 (phenacetin O-deethylation); conditions: human liver microsomes 0.1 mg/mL, 10 μM phenacetin, 10 min at 37° C., 6 concentrations up to 10 μM; read-out: IC50 (nM) CYP1A2
T5 construct: 0.1 mg/mL protein human liver microsomes (BD Gentest); tissue BD Gentest; host or cells: human liver microsomes
T5 sequence (P05177 1-516): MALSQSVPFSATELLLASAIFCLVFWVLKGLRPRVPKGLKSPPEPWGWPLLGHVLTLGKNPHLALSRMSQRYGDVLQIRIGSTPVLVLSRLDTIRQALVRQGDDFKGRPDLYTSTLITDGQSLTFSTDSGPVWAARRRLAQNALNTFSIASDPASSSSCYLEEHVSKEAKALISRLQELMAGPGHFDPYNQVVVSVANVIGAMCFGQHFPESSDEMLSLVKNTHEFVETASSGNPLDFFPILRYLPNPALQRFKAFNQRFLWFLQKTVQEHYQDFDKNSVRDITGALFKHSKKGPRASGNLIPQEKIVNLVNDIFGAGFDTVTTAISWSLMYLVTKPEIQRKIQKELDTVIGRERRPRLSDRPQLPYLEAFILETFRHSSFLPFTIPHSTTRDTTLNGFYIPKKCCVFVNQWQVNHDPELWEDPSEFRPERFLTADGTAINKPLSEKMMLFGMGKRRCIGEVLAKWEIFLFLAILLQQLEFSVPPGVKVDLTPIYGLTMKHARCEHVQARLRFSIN

IC50 (CYP2D6) [nM]	IC50 (CYP2C19) [nM]	IC50 (CYP3A4) [nM]	IC50 (CYP2C9) [nM]	IC50 (CYP1A2) [nM]	Compound
> 10000	5500	12	7770	> 10000	C[C@H](c1ccc(C#N)cc1)n1cncc1CN1CCN(c2ccccc2)C(C(=O)N2CCCCC2)C1 (single isomer, unassigned) [Compound 45a]
> 10000	5180	20	4000	> 10000	C[C@H](c1ccc(C#N)cc1)n1cncc1CN1CCN(c2ccccc2)C(C(=O)N2CCCCC2)C1 (single isomer, unassigned) [Compound 45b]
4000	4330	16	4360	> 10000	C[C@H](c1ccc(F)cc1)n1cncc1CN1CCN(C(=O)c2ccccc2)C(c2ccccc2)C1 (single isomer, unassigned) [Compound 50a]
> 10000	4400	5	1280	> 10000	C[C@H](c1ccc(F)cc1)n1cncc1CN1CCN(C(=O)c2ccccc2)C(c2ccccc2)C1 (single isomer, unassigned) [Compound 50b]
> 10000	8490	7	> 10000	> 10000	C[C@H](c1ccc(F)cc1)n1cncc1CN1CCN(C(=O)C2CCOCC2)C(c2ccccc2)C1 (single isomer, unassigned) [Compound 52a]
> 10000	3670	27	6200	> 10000	C[C@H](c1ccc(F)cc1)n1cncc1CN1CCN(C(=O)C2CCOCC2)C(c2ccccc2)C1 (single isomer, unassigned) [Compound 52b]
> 10000	6220	20	7370	> 10000	CCC1(C#N)CCN(Cc2cncn2[C@H](C)c2ccc(F)cc2)CC1 [Compound 1, (R)-4-Ethyl-1-((1-(1-(4-fluorophenyl)ethyl)-1H-imidazol-5-yl)methyl)piperidine-4-carbonitrile]
> 10000	> 10000	18	> 10000	> 10000	CC(C)C1(C#N)CCN(Cc2cncn2[C@H](C)c2ccc(F)cc2)CC1 [Compound 2, (R)-1-((1-(1-(4-fluorophenyl)ethyl)-1H-imidazol-5-yl)methyl)-4-isopropylpiperidine-4-carbonitrile]
> 10000	2680	58	3270	> 10000	CC1(C#N)CCN(Cc2cncn2Cc2nc3ccccc3s2)CC1 [Compound 4, 1-((1-(benzo[d]thiazol-2-ylmethyl)-1H-imidazol-5-yl)methyl)-4-methylpiperidine-4-carbonitrile]
7330	3740	15	3250	5570	C[C@H](c1ccc(F)cc1)n1cncc1CN1CCC(C#N)(C2CCCC2)CC1 [Compound 5, (R)-4-cyclopentyl-1-((1-(1-(4-fluorophenyl)ethyl)-1H-imidazol-5-yl)methyl)piperidine-4-carbonitrile]
4960	7920	27	5670	> 10000	CCCC1(C#N)CCN(Cc2cncn2[C@H](C)c2ccc(F)cc2)CC1 [Compound 6, (R)-1-((1-(1-(4-fluorophenyl)ethyl)-1H-imidazol-5-yl)methyl)-4-propylpiperidine-4-carbonitrile]

Compound	IC50 (CYP2D6) [nM]	IC50 (CYP2C19) [nM]	IC50 (CYP3A4) [nM]	IC50 (CYP2C9) [nM]	IC50 (CYP1A2) [nM]
C[C@H](c1ccc(F)cc1)n1cncc1CN1CCC(C)(C#N)CC1 [Compound 3, (R)-1-((1-(1-(4-fluorophenyl)ethyl)-1H-imidazol-5-yl)methyl)-4-methylpiperidine-4-carbonitrile]	8710	> 10000	37	> 10000	> 10000
